Measured values reported in patent US7396837B2, “Antitumoral analogs of lamellarins” (Pharma Mar, S.A.U., priority 2002, dated 2008).
Read-outs that look alike come from different tables or passages of the source.

Tests used:
Format in all cases: cell-based
[1] = test system: HeLa-APL; assay: SRB colorimetric cell growth inhibition assay, HeLa-APL (aplidine resistant); details: HELA-APL; for GI50: GI=growth inhibition, read-out: GI50 HELA-APL; for CC50: cell killing (cytotoxic effect), read-out: LC50 HELA-APL; for IC (TGI): read-out: TGI HELA-APL
Method in brief: (§1)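 Sulforhodamine B colorimetric readout measured cell growth and viability after continuous compound exposure of human cancer cell lines in 96-well plates. Triplicate wells gave mean ± SD, from which growth inhibition (GI), cytostatic total growth inhibition (TGI) and cytotoxic cell killing (LC) were calculated.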

[2] = test system: PANC-1; assay: SRB colorimetric cell growth inhibition assay, PANC-1; details: for CC50: cell killing (cytotoxic effect), read-out: LC50 PANC-1; for IC (TGI): read-out: TGI PANC-1; for GI50: GI=growth inhibition, read-out: GI50 PANC-1
Method in brief: as §1

[3] = test system: DU-145; assay: SRB colorimetric cell growth inhibition assay, DU-145; details: for GI50: GI=growth inhibition, read-out: GI50 DU-145; for CC50: cell killing (cytotoxic effect), read-out: LC50 DU-145
Method in brief: as §1

[4] = test system: LoVo; assay: SRB colorimetric cell growth inhibition assay, LoVo; details: for CC50: cell killing (cytotoxic effect), read-out: LC50 LOVO; for IC (TGI): read-out: TGI LOVO; for GI50: GI=growth inhibition, read-out: GI50 LOVO
Method in brief: as §1

[5] = test system: LNCaP; assay: SRB colorimetric cell growth inhibition assay, LNCaP; details: LN-caP; for GI50: GI=growth inhibition, read-out: GI50 LN-caP; for CC50: cell killing (cytotoxic effect), read-out: LC50 LN-caP
Method in brief: as §1

[6] = test system: SK-BR-3; assay: SRB colorimetric cell growth inhibition assay, SK-BR-3; details: for GI50: GI=growth inhibition, read-out: GI50 SK-BR-3; for CC50: cell killing (cytotoxic effect), read-out: LC50 SK-BR-3
Method in brief: as §1

[7] = test system: HeLa; assay: SRB colorimetric cell growth inhibition assay, HeLa; details: for GI50: GI=growth inhibition, read-out: GI50 HELA; for CC50: cell killing (cytotoxic effect), read-out: LC50 HELA; for IC (TGI): read-out: TGI HELA
Method in brief: as §1

[8] = test system: IGROV; assay: SRB colorimetric cell growth inhibition assay, IGROV; details: IGROV; for GI50: GI=growth inhibition, read-out: GI50 IGROV; for CC50: cell killing (cytotoxic effect), read-out: LC50 IGROV
Method in brief: as §1

[9] = test system: A-549; assay: SRB colorimetric cell growth inhibition assay, A-549; details: for GI50: GI=growth inhibition, read-out: GI50 A-549; for CC50: cell killing (cytotoxic effect), read-out: LC50 A-549; for IC (TGI): read-out: TGI A-549
Method in brief: as §1

[10] = test system: IGROV-ET; assay: SRB colorimetric cell growth inhibition assay, IGROV-ET (ET-743 resistant); details: IGROV-ET; for GI50: GI=growth inhibition, read-out: GI50 IGROV-ET; for CC50: cell killing (cytotoxic effect), read-out: LC50 IGROV-ET
Method in brief: as §1

[11] = test system: LoVo-Dox; assay: SRB colorimetric cell growth inhibition assay, LoVo-Dox (MDR); details: LOVO-DOX; for CC50: cell killing (cytotoxic effect), read-out: LC50 LOVO-DOX; for IC (TGI): read-out: TGI LOVO-DOX; for GI50: GI=growth inhibition, read-out: GI50 LOVO-DOX
Method in brief: as §1

[12] = test system: K-562; assay: SRB colorimetric cell growth inhibition assay, K-562; details: for CC50: cell killing (cytotoxic effect), read-out: LC50 K-562; for IC (TGI): read-out: TGI K-562; for GI50: GI=growth inhibition, read-out: GI50 K-562
Method in brief: as §1

[13] = test system: SK-MEL-28; assay: SRB colorimetric cell growth inhibition assay, SK-MEL-28; details: for GI50: GI=growth inhibition, read-out: GI50 MEL-28; for CC50: cell killing (cytotoxic effect), read-out: LC50 MEL-28
Method in brief: as §1

[14] = test system: HT-29; assay: SRB colorimetric cell growth inhibition assay, HT-29; details: for GI50: GI=growth inhibition, read-out: GI50 HT-29; for CC50: cell killing (cytotoxic effect), read-out: LC50 HT-29; for IC (TGI): read-out: TGI HT-29
Method in brief: as §1

[15] = Homo sapiens, total growth inhibition (cytostatic effect)
[16] = Homo sapiens, PANC-1, PANC-1, total growth inhibition (cytostatic effect)
[17] = DU-145, total growth inhibition (cytostatic effect)
[18] = Homo sapiens, LoVo, total growth inhibition (cytostatic effect)
[19] = total growth inhibition (cytostatic effect)
[20] = SK-BR-3, total growth inhibition (cytostatic effect)
[21] = Homo sapiens, HeLa, total growth inhibition (cytostatic effect)
[22] = Homo sapiens, A549, A-549, total growth inhibition (cytostatic effect)
[23] = Homo sapiens, K562, K-562, total growth inhibition (cytostatic effect)
[24] = MEL-28, total growth inhibition (cytostatic effect)
[25] = Homo sapiens, HT-29, HT-29, total growth inhibition (cytostatic effect)
[26] = Homo sapiens, SK-MEL-28, MEL-28

## COc1cc(-c2c3c4cc(OC)c(OC(=O)[C@@H](N)Cc5ccccc5)cc4oc(=O)c3n3ccc4c(OC(=O)[C@@H](N)Cc5ccccc5)c(OC)c(OC)cc4c23)ccc1OC(=O)[C@@H](N)Cc1ccccc1 [Compound 207]
[1]; Homo sapiens
  GI50: 0.0779 µM
  CC50: 3.71 µM
[1]; [15]
  IC (TGI): 1.5 µM
[2]; Homo sapiens, PANC-1, PANC-1
  CC50: 9.26 µM
[2]; [16]
  IC (TGI): 2.37 µM
[2]; PANC-1
  GI50: 0.127 µM
[3]; DU-145
  GI50: 0.023 µM
  CC50: 0.0748 µM
[3]; [17]
  TGI DU-145: 4.16E−08 Molar
[4]; Homo sapiens, LoVo
  CC50: 0.868 µM
[4]; [18]
  IC (TGI): 0.405 µM
[4]; LOVO
  GI50: 0.189 µM
[5]
  GI50: 0.127 µM
  CC50: 4.1 µM
[5]; [19]
  TGI LN-caP: 9.44E−07 Molar
[6]; SK-BR-3
  GI50: 0.202 µM
  CC50: 4.21 µM
[6]; [20]
  TGI SK-BR-3: 1.07E−06 Molar
[7]; Homo sapiens, HeLa
  GI50: 0.0422 µM
  CC50: 3.34 µM
[7]; [21]
  IC (TGI): 1.23 µM
[8]
  GI50: 0.0763 µM
  CC50: 1.55 µM
[8]; [19]
  TGI IGROV: 3.18E−07 Molar
[9]; A-549
  GI50: 0.0914 µM
[9]; Homo sapiens, A549, A-549
  CC50: 3.55 µM
[9]; [22]
  IC (TGI): 1.02 µM
[10]
  GI50: 0.0436 µM
  CC50: 2.38 µM
[10]; [19]
  TGI IGROV-ET: 2.86E−07 Molar
[11]; Homo sapiens
  CC50: 9.26 µM
[11]; [15]
  IC (TGI): 2.85 µM
[11]
  GI50: 0.316 µM
[12]; Homo sapiens, K562, K-562
  CC50: 9.26 µM
[12]; [23]
  IC (TGI): 3.06 µM
[12]; K-562
  GI50: 0.092 µM
[13]; MEL-28
  GI50: 0.0444 µM
  CC50: 4.6 µM
[13]; [24]
  TGI MEL-28: 2.45E−07 Molar
[14]; HT-29
  GI50: 3.77 µM
[14]; Homo sapiens, HT-29, HT-29
  CC50: 9.26 µM
[14]; [25]
  IC (TGI): 9.26 µM

## COc1cc2c(cc1O)oc(=O)c1c2c(-c2cccc([N+](=O)[O-])c2)c2c3cc(OC)c(O)cc3ccn21 [Compound 221]
[1]; Homo sapiens
  GI50: 0.0796 µM
  CC50: 20.1 µM
[1]; [15]
  IC (TGI): 20.1 µM
[2]; Homo sapiens, PANC-1, PANC-1
  GI50: 0.0786 µM
  CC50: 20.1 µM
[2]; [16]
  IC (TGI): 20.1 µM
[3]; Homo sapiens, DU-145, DU-145
  GI50: 0.0431 µM
  CC50: 20.1 µM
[3]; Homo sapiens, DU-145, DU-145, total growth inhibition (cytostatic effect), read-out: TGI DU-145
  IC (TGI): 0.257 µM
[4]; Homo sapiens, LoVo
  GI50: 2.41 µM
  CC50: 15.9 µM
[4]; [18]
  IC (TGI): 6.2 µM
[5]; Homo sapiens, LNCaP
  GI50: 0.0722 µM
  CC50: 20.1 µM
[5]; Homo sapiens, LNCaP, total growth inhibition (cytostatic effect), read-out: TGI LN-caP
  IC (TGI): 5.02 µM
[6]; Homo sapiens, SK-BR-3, SK-BR-3
  GI50: 1.53 µM
  CC50: 20.1 µM
[6]; Homo sapiens, SK-BR-3, SK-BR-3, total growth inhibition (cytostatic effect), read-out: TGI SK-BR-3
  IC (TGI): 12.9 µM
[7]; Homo sapiens, HeLa
  GI50: 0.0564 µM
  CC50: 20.1 µM
[7]; [21]
  IC (TGI): 20.1 µM
[8]; Homo sapiens
  GI50: 0.0819 µM
  CC50: 20.1 µM
[8]; Homo sapiens, total growth inhibition (cytostatic effect), read-out: TGI IGROV
  IC (TGI): 20.1 µM
[9]; Homo sapiens, A549, A-549
  GI50: 0.0802 µM
  CC50: 20.1 µM
[9]; [22]
  IC (TGI): 20.1 µM
[10]; Homo sapiens
  GI50: 0.0648 µM
  CC50: 20.1 µM
[10]; Homo sapiens, total growth inhibition (cytostatic effect), read-out: TGI IGROV-ET
  IC (TGI): 20.1 µM
[11]; Homo sapiens
  GI50: 2.83 µM
  CC50: 20.1 µM
[11]; [15]
  IC (TGI): 14.2 µM
[12]; Homo sapiens, K562, K-562
  GI50: 0.0883 µM
  CC50: 20.1 µM
[12]; [23]
  IC (TGI): 20.1 µM
[13]; [26]
  GI50: 0.106 µM
  CC50: 20.1 µM
[13]; Homo sapiens, SK-MEL-28, MEL-28, total growth inhibition (cytostatic effect), read-out: TGI MEL-28
  IC (TGI): 20.1 µM
[14]; Homo sapiens, HT-29, HT-29
  GI50: 20.1 µM
  CC50: 20.1 µM
[14]; [25]
  IC (TGI): 20.1 µM

## COc1cc2c(cc1O)oc(=O)c1c2c(-c2ccc(OC(=O)[C@H](C)N)c(OC)c2)c2c3cc(OC)c(O)cc3ccn21.Cl [Compound 238]
[1]
  GI50: 0.157 µM
  CC50: 1.76 µM
[1]; [19]
  TGI HELA-APL: 5.16E−07 Molar
[2]; PANC-1
  GI50: 0.0254 µM
  CC50: 1.61 µM
[2]; PANC-1, total growth inhibition (cytostatic effect)
  TGI PANC-1: 2.50E−07 Molar
[3]; DU-145
  GI50: 0.0458 µM
  CC50: 16.5 µM
[3]; [17]
  TGI DU-145: 9.65E−08 Molar
[4]; LOVO
  GI50: 0.057 µM
  CC50: 1.29 µM
[4]; LOVO, total growth inhibition (cytostatic effect)
  TGI LOVO: 2.26E−07 Molar
[5]
  GI50: 2.13 µM
  CC50: 16.5 µM
[5]; [19]
  TGI LN-caP: 1.65E−05 Molar
[6]; SK-BR-3
  GI50: 0.153 µM
  CC50: 16.5 µM
[6]; [20]
  TGI SK-BR-3: 1.61E−06 Molar
[7]; HELA
  GI50: 0.0522 µM
  CC50: 1.24 µM
[7]; HELA, total growth inhibition (cytostatic effect)
  TGI HELA: 1.31E−07 Molar
[8]
  GI50: 0.0799 µM
  CC50: 1.26 µM
[8]; [19]
  TGI IGROV: 2.82E−07 Molar
[9]; A-549
  GI50: 0.0458 µM
  CC50: 16.5 µM
[9]; A-549, total growth inhibition (cytostatic effect)
  TGI A-549: 4.38E−07 Molar
[10]
  GI50: 0.0413 µM
  CC50: 16.5 µM
[10]; [19]
  TGI IGROV-ET: 1.44E−07 Molar
[11]
  GI50: 2.26 µM
  CC50: 16.5 µM
[11]; [19]
  TGI LOVO-DOX: 8.98E−07 Molar
[12]; K-562
  GI50: 0.0433 µM
  CC50: 1.2 µM
[12]; K-562, total growth inhibition (cytostatic effect)
  TGI K-562: 2.47E−07 Molar
[13]; MEL-28
  GI50: 0.0526 µM
  CC50: 12.5 µM
[13]; [24]
  TGI MEL-28: 3.51E−07 Molar
[14]; HT-29
  GI50: 2.65 µM
  CC50: 16.5 µM
[14]; HT-29, total growth inhibition (cytostatic effect)
  TGI HT-29: 1.06E−05 Molar
